The record followed here is patent publication US20110152362A1, “METHODS OF TREATING EPILEPTOGENESIS AND EPILEPSY” (priority 2004, published 2011).

This data set in a line: Blood levels in humans, oral administration of Test Compound for 7 days (toxicology studies). It counts as in vivo, human. The following applies: for Cmax at 7 days: blood; for Cmax at 7 days / AUC (0-24): human. An excerpt:
In toxicology studies in humans, oral administration of Test Compound at various doses for 7 days produced the following C max's and AUC (0-24): […]

Molecules are shown by their SMILES.

As to `NC(=O)OC[C@@H](O)c1ccccc1Cl` [TC], for the setting “750 mg twice a day (1500 mg/day)”, the tolerability in humans result is “easily tolerated”. In addition, the Cmax at 7 days worked out at 3600 ng/mL (oral 100 mg b.i.d. for 7 days), 8200 ng/mL (oral 250 mg b.i.d. for 7 days), 17200 ng/mL (oral 500 mg b.i.d. for 7 days) and 28200 ng/mL (oral 750 mg b.i.d. for 7 days). The “AUC (0-24)” value (oral 100 mg b.i.d. for 7 days) stood at 42.2 micrograms-hour/mL, the “AUC (0-24)” value (oral 250 mg b.i.d. for 7 days) is on record as 102.3 micrograms-hour/mL, the “AUC (0-24)” value (oral 500 mg b.i.d. for 7 days) is recorded as 204.1 micrograms-hour/mL and the “AUC (0-24)” value (oral 750 mg b.i.d. for 7 days) is 322.7 micrograms-hour/mL.

The Cmax is the maximum level reached in the sampled fluid or tissue.
